Source: patent publication US7348427B2, “Antipathogenic benzamide compounds” (Genesoft Pharmaceuticals, Inc., priority 2001, dated 2008)
Converted amounts (≈) assume the structure as drawn.

How the values were obtained:
S. pneumoniae ATCC 49619 = test: MIC, NCCLS broth microdilution assay; format: cell-based, Streptococcus pneumoniae; details: H = S. pneumoniae ATCC 49619
In short: (§1)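 Broth microdilution per NCCLS M7-A4 (1997) guidelines; MIC recorded as minimal inhibitory concentration.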

[1] = tested on: methicillin resistant Staphylococcus aureus ATCC 33591; test: Murine neutropenic thigh model; format: in vivo; details: neutropenic female CF1 mice, 6 hr after treatment
Experimental: A S. aureus ATCC 33591 culture was grown to log phase overnight and diluted in phosphate buffered saline (pH 7.2) to an optical density of about 0.1 at 600 nm, giving an approximate concentration of 10^8 cfu/mL. The suspension was diluted 1:100 in phosphate buffered saline (pH 7.2) for a final concentration of 10^6 cfu/mL.
Outbred female CF1 mice (approx. 20 gram body weight) were rendered neutropenic by treatment with cyclophosphamide (200 mg/kg body weight, intraperitoneal injection) at 2 and 4 days prior to inoculation. Groups of 5 mice were inoculated with 0.05 mL of the bacteria (approx. 10^6 cfu/mL) into the anterior thigh. Each group was treated intravenously two hours post infection with vehicle (phosphate buffered saline) or test compound. The mice were sacrificed at either 6 or 24 hrs after treatment and thighs were collected aseptically. Each thigh was weighed, placed into sterile saline, and homogenized. The tissue homogenates were diluted appropriately for plating on agar plates. Colony counts were recorded (cfu/gram) and compared to control groups.
In vivo efficacy was shown by a decrease in colony count (log cfu/gram of tissue) in the compound-treated animals when compared against the colony count in animals given only the vehicle.

[2] = tested on: Bacillus cereus (ATCC 11778); test: MIC, NCCLS broth microdilution assay; format: cell-based; details: A = B. cereus ATCC 11778
In short: (§2)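 MIC determined by broth microdilution in microtiter plates per NCCLS documents M7-A4, M11-A4 (1997) and M27-T (1995). Antifungal testing against the yeast followed the method recommended in the Manual of Clinical Microbiology (1995).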

[3] = tested on: Streptococcus pneumoniae (ATCC 51422, a penicillin resistant strain (PRSP)); test: MIC, NCCLS broth microdilution assay; format: cell-based; details: I = S. pneumoniae ATCC 51422
In short: as §2

[4] = tested on: Staphylococcus aureus (ATCC 13709, a methicillin sensitive strain (MSSA)); test: MIC, NCCLS broth microdilution assay; format: cell-based; details: E = S. aureus ATCC 13709
In short: as §2

[5] = tested on: Enterococcus faecium (ATCC 51559, a vancomycin resistant strain (VRE)); test: MIC, NCCLS broth microdilution assay; format: cell-based; details: D = E. faecium ATCC 51559
In short: as §2

[6] = tested on: Staphylococcus aureus (ATCC 27660, a methicillin resistant strain (MRSA)); test: MIC, NCCLS broth microdilution assay; format: cell-based; details: F = S. aureus ATCC 27660
In short: as §2

[7] = tested on: Staphylococcus epidermidis (ATCC 12228); test: MIC, NCCLS broth microdilution assay; format: cell-based; details: G = S. epidermidis ATCC 12228
In short: as §2

[8] = tested on: Candida albicans (ATCC 38247); test: Antifungal MIC assay; format: cell-based; details: B = C. albicans ATCC 38247
In short: as §2

E. faecalis ATCC 29212 = test: MIC, NCCLS broth microdilution assay; format: cell-based, Enterococcus faecalis; details: C = E. faecalis ATCC 29212
In short: as §1

[9] = molecular target: dsDNA target sequence AATACT (310 bp fragment, Plasmid A); test: Quantitative DNase I footprint titration, dsDNA binding; details: 310 bp/A, 22° C., pH 7.0, read-out: Dissociation Constant Kd
[10] = molecular target: dsDNA target sequence AATTAATCAT (352 bp fragment, Plasmid B); test: as above; details: 352 bp/B, 22° C., pH 7.0, read-out: Dissociation Constant Kd
[11] = 50 mg/kg intravenously two hours post infection
[12] = Staphylococcus aureus, read-out: Minimum Inhibitory Concentration (MIC)
[13] = 25 mg/kg intravenously two hours post infection

| Structure (SMILES) | Minimum Inhibitory Concentration (MIC) (S. pneumoniae ATCC 49619) | Colony Count (log cfu/gram) Compound [1, 11] | Minimum Inhibitory Concentration (MIC) [2] | Minimum Inhibitory Concentration (MIC) [3] | Minimum Inhibitory Concentration (MIC) [4] | Minimum Inhibitory Concentration (MIC) [5] | Minimum Inhibitory Concentration (MIC) [6] | Minimum Inhibitory Concentration (MIC) [7] | Minimum Inhibitory Concentration (MIC) [8] | Minimum Inhibitory Concentration (MIC) (E. faecalis ATCC 29212) | Colony Count (log cfu/gram) Compound [1, 13] | also measured |
| --- | --- | --- | --- | --- | --- | --- | --- | --- | --- | --- | --- | --- |
| Cn1cc(NC(=O)c2cc(NC(=O)c3cc(NC(=O)c4ccc(F)cc4F)cn3C)cn2C)cc1C(=O)NCCN1CCCCC1 [Compound B-6] | +++ (+++ = MIC ≦ 4) | 6.37 log cfu/gram | +++ (+++ = MIC ≦ 4) | +++ (+++ = MIC ≦ 4) | +++ (+++ = MIC ≦ 4) | +++ (+++ = MIC ≦ 4) | +++ (+++ = MIC ≦ 4) | +++ (+++ = MIC ≦ 4) | >32 µg/mL | +++ (+++ = MIC ≦ 4) | – | – |
| Cn1cc(NC(=O)c2cc(NC(=O)c3cc(NC(=O)c4ccc(Cl)cc4F)c[nH]3)cn2C)cc1C(=O)NCCN1CCOCC1 [Compound A-3] | – | – | – | – | – | – | – | – | – | – | – | Kd [9]: 5 nM; Kd [10]: 1 nM; MIC (S. pneumoniae ATCC 49619; Streptococcus pneumoniae, ATCC49619, read-out: Minimum Inhibitory Concentration (MIC)): ≤ 4 µg/mL; MIC ([2]; Bacillus cereus, ATCC11778, read-out: Minimum Inhibitory Concentration (MIC)): ≤ 4 µg/mL; MIC ([3]; Streptococcus pneumoniae, read-out: Minimum Inhibitory Concentration (MIC)): ≤ 4 µg/mL; MIC [4, 12]: ≤ 4 µg/mL; MIC ([5]; Enterococcus faecium, read-out: Minimum Inhibitory Concentration (MIC)): ≤ 4 µg/mL; MIC [6, 12]: ≤ 4 µg/mL; MIC ([7]; Staphylococcus epidermidis, ATCC12228, read-out: Minimum Inhibitory Concentration (MIC)): ≤ 4 µg/mL; MIC ([8]; Candida albicans, ATCC38247, read-out: Minimum Inhibitory Concentration (MIC)): 12 to 32 µg/mL (≈ 18.8 to 50.1 µM); MIC (E. faecalis ATCC 29212; Enterococcus faecalis, ATCC29212, read-out: Minimum Inhibitory Concentration (MIC)): ≤ 4 µg/mL |
| Cn1cc(NC(=O)c2cc(NC(=O)c3cc(NC(=O)c4ccc(F)cc4F)cn3C)cn2C)cc1C(=O)NCCN1CCCCCC1 [Compound B-18] | +++ (+++ = MIC ≦ 4) | – | +++ (+++ = MIC ≦ 4) | +++ (+++ = MIC ≦ 4) | +++ (+++ = MIC ≦ 4) | +++ (+++ = MIC ≦ 4) | +++ (+++ = MIC ≦ 4) | +++ (+++ = MIC ≦ 4) | ++ (++ = 4 < MIC < 12) | +++ (+++ = MIC ≦ 4) | – | Kd [10]: 2 nM |
| Cn1cc(NC(=O)c2cc(NC(=O)c3cc(NC(=O)c4ccc(F)cc4F)c[nH]3)cn2C)cc1C(=O)NCCN1CCCC1 [Compound A-9] | + (+ = 12 ≦ MIC ≦ 32) | 5.11 log cfu/gram | +++ (+++ = MIC ≦ 4) | +++ (+++ = MIC ≦ 4) | +++ (+++ = MIC ≦ 4) | +++ (+++ = MIC ≦ 4) | +++ (+++ = MIC ≦ 4) | +++ (+++ = MIC ≦ 4) | + (+ = 12 ≦ MIC ≦ 32) | +++ (+++ = MIC ≦ 4) | 7.11 log cfu/gram | – |
| Cc1cc(NC(=O)c2cc(NC(=O)c3cc(NC(=O)c4ccc(F)cc4F)cn3C)cn2CCCN(C)C)sn1 [Compound D-3] | +++ (+++ = MIC ≦ 4) | 6.28 log cfu/gram | +++ (+++ = MIC ≦ 4) | +++ (+++ = MIC ≦ 4) | +++ (+++ = MIC ≦ 4) | + (+ = 12 ≦ MIC ≦ 32) | +++ (+++ = MIC ≦ 4) | +++ (+++ = MIC ≦ 4) | +++ (+++ = MIC ≦ 4) | +++ (+++ = MIC ≦ 4) | – | – |
| Cn1cc(NC(=O)c2cc(NC(=O)c3cc(NC(=O)c4ccc(F)cc4F)c[nH]3)cn2C)cc1C(=O)NCCN1CCC(O)CC1 [Compound A-8] | +++ (+++ = MIC ≦ 4) | 4.45 log cfu/gram | +++ (+++ = MIC ≦ 4) | +++ (+++ = MIC ≦ 4) | +++ (+++ = MIC ≦ 4) | +++ (+++ = MIC ≦ 4) | +++ (+++ = MIC ≦ 4) | +++ (+++ = MIC ≦ 4) | + (+ = 12 ≦ MIC ≦ 32) | +++ (+++ = MIC ≦ 4) | 5.85 log cfu/gram | – |
| Cn1cc(NC(=O)c2cc(NC(=O)c3cc(NC(=O)c4ccc(F)cc4F)c[nH]3)cn2C)cc1C(=O)NCCN1CCCCC1 [Compound A-4] | +++ (+++ = MIC ≦ 4) | 4.99 log cfu/gram | +++ (+++ = MIC ≦ 4) | +++ (+++ = MIC ≦ 4) | +++ (+++ = MIC ≦ 4) | +++ (+++ = MIC ≦ 4) | +++ (+++ = MIC ≦ 4) | +++ (+++ = MIC ≦ 4) | ++ (++ = 4 < MIC < 12) | + (+ = 12 ≦ MIC ≦ 32) | 5.75 log cfu/gram | – |
| Cc1cc(NC(=O)c2cc(NC(=O)c3cc(NC(=O)c4ccc(Cl)cc4F)c[nH]3)cn2CCCN(C)C)sn1 [Compound D-11] | +++ (+++ = MIC ≦ 4) | 6.25 log cfu/gram | +++ (+++ = MIC ≦ 4) | +++ (+++ = MIC ≦ 4) | +++ (+++ = MIC ≦ 4) | +++ (+++ = MIC ≦ 4) | +++ (+++ = MIC ≦ 4) | +++ (+++ = MIC ≦ 4) | +++ (+++ = MIC ≦ 4) | +++ (+++ = MIC ≦ 4) | – | – |
| Cn1cc(NC(=O)c2cc(NC(=O)c3cc(NC(=O)c4ccc(Cl)cc4F)cn3C)cn2C)cc1C(=O)NCCN1CCOCC1 [Compound B-47] | +++ (+++ = MIC ≦ 4) | 7.53 log cfu/gram | +++ (+++ = MIC ≦ 4) | +++ (+++ = MIC ≦ 4) | – | +++ (+++ = MIC ≦ 4) | +++ (+++ = MIC ≦ 4) | +++ (+++ = MIC ≦ 4) | >32 µg/mL | +++ (+++ = MIC ≦ 4) | – | – |
